According to article PMC6792352, “Limited Chemical Structural Diversity Found to Modulate Thyroid Hormone Receptor in the Tox21 Chemical Library” (Environmental Health Perspectives, 2019):
Where a name gives a salt, the structure may show the parent alone.

Experiment: in vitro
Settings: rat, gh3-tre-luc cells

Row | SMILES | CC50 at 24 h (AC50 (uM) modified / 1000) [µM] | further results
1 | Oc1ccc(Cl)cc1 [4-Chlorophenol] | > 90 | –
2 | Clc1ccc(Cl)c(Cl)c1Cl [1,2,3,4-Tetrachlorobenzene] | > 90 | –
3 | Cc1ccc2ccccc2c1[N+](=O)[O-] [1-Nitro-2-methylnaphthalene] | > 90 | –
4 | Cc1ccc([N+](=O)[O-])c(N)c1 [5-Methyl-2-nitroaniline] | > 90 | –
5 | CC(C)(Cc1c[nH]c2ccccc12)NCC(O)COc1ccccc1C#N (stereo not drawn) [Bucindolol] | 20.5 | –
6 | CC1=CC(C)(C)Nc2ccccc21 [1,2-Dihydro-2,2,4-trimethylquinoline] | > 90 | –
7 | CCC1(CC)C(=O)NC(=O)N(C)C1=O [Metharbital] | – | CC50 at 24 h (AC50 (uM) modified / 1000, Tox21_110001=Tox21_112752, viability, 1 nM T3 present, 24 h): > 50 µM
8 | Cc1c(F)c(F)c(COC(=O)[C@H]2[C@@H](/C=C(\Cl)C(F)(F)F)C2(C)C)c(F)c1F (racemic) [Tefluthrin] | > 90 | –
9 | CCN(CC)CCO[C@H]1CC[C@@]2(C)C(=CC[C@@H]3[C@@H]2CC[C@]2(C)C(=O)CC[C@@H]32)C1 [3beta-(2-Diethylaminoethoxy)androst-5-en-17-one hydrochloride] | > 50 | –
10 | C[Si]1(C)O[Si](C)(C)O[Si](C)(C)O1 [Hexamethylcyclotrisiloxane] | > 90 | –
11 | COC(=O)C(C)(C)C [Methyl pivalate] | > 90 | –
12 | C=CC[C@]1(O)CC[C@H]2[C@@H]3CCC4=CC(=O)CCC4=C3C=C[C@@]21C [Altrenogest] | > 50 | –
13 | N#CSCSc1nc2ccccc2s1 [2-(Thiocyanomethylthio)benzothiazole] | 3.06 | –
14 | CN(C)CCOC(C)(c1ccccc1)c1ccccn1 (stereo not drawn) [Doxylamine succinate] | > 50 | –
15 | CC1(C)C(C=C(Cl)Cl)C1C(=O)OCc1cccc(Oc2ccccc2)c1 (stereo not drawn) [Permethrin] | > 90 | –
16 | CC1(C)S[C@@H]2[C@H](NC(=O)[C@H](N)c3ccccc3)C(=O)N2[C@H]1C(=O)OC1OC(=O)c2ccccc21 (stereo partly drawn) [Talampicillin hydrochloride] | > 20 | –
17 | CCCCCCCCCCCCCCCS(=O)(=O)Oc1ccccc1 [C10-21 alkanesulfonic acids phenyl esters] | > 50 | –
18 | Cc1nc(N(C)C)nc(OC(=O)N(C)C)c1C [Pirimicarb] | – | CC50 at 24 h (AC50 (uM) modified / 1000, Tox21_110001=Tox21_301003, viability, 1 nM T3 present, 24 h): > 90 µM
19 | Cc1cc(-c2ccc(N=Nc3cc(S(=O)(=O)O)c4ccccc4c3N)c(C)c2)ccc1N=Nc1cc(S(=O)(=O)O)c2ccccc2c1N [C.I. Direct Red 2] | 62.5 | –
20 | O=c1[nH]c2ccc([S+]([O-])CCN3CCC(Cc4ccc(F)cc4)CC3)cc2o1 (stereo not drawn) [Besonprodil] | > 90 | –
21 | N[C@@H]1CN(c2c(F)cc3c(=O)c(C(=O)O)cn([C@@H]4C[C@@H]4F)c3c2Cl)CC12CC2 [Sitafloxacin] | > 50 | –
22 | CCNc1nc(Cl)nc(NC(C)(C)C#N)n1 [Cyanazine] | – | CC50 at 24 h (AC50 (uM) modified / 1000, Tox21_110001=Tox21_201619, viability, 1 nM T3 present, 24 h): > 90 µM
23 | CCOc1cc(CC(=O)N[C@@H](CC(C)C)c2ccccc2N2CCCCC2)ccc1C(=O)O [Repaglinide] | > 20 | –
24 | O=C(O)C(F)(F)C(F)(F)C(F)(F)C(F)(F)C(F)(F)C(F)(F)C(F)(F)C(F)(F)C(F)(F)F [Perfluorodecanoic acid] | – | CC50 at 24 h (AC50 (uM) modified / 1000, Tox21_110001=Tox21_300608, viability, 1 nM T3 present, 24 h): > 90 µM
25 | CCCCCCC1(C)CCC(=O)O1 (stereo not drawn) [Dihydrojasmone lactone] | > 90 | –
26 | CCC(C)(O)CCCC(C)C (stereo not drawn) [3,7-Dimethyl-3-octanol] | > 90 | –
27 | CCOC(=O)[C@H](CCc1ccccc1)N[C@@H](C)C(=O)N1Cc2ccccc2C[C@H]1C(=O)O [Quinapril hydrochloride] | > 90 | –

Row | SMILES | CC50 at 24 h (AC50 (uM) modified / 1000) [µM] | further results
28 | C[C@H]1CCCC(=O)CCC/C=C/c2cc(O)cc(O)c2C(=O)O1 [Zearalenone] | – | CC50 at 24 h (AC50 (uM) modified / 1000, Tox21_110001=Tox21_201153, viability, 1 nM T3 present, 24 h): 41.1 µM; CC50 at 24 h (AC50 (uM) modified / 1000, Tox21_110001=Tox21_303510, viability, 1 nM T3 present, 24 h): 23.5 µM
29 | S=C(SSSSSSC(=S)N1CCCCC1)N1CCCCC1 [Bis(1-piperidinylthioxomethyl)hexasulfide] | 0.0827 | –
30 | NCCO [2-Hydroxyethylammonium formate] | > 90 | –
31 | CCCCCCCCCCCC(=O)OCC [Ethyl dodecanoate] | > 90 | –
32 | Nc1ccccc1[N+](=O)[O-] [2-Nitroaniline] | > 90 | –
33 | Cc1nc2ccccc2c(=O)o1 [2-Methyl-4H,3,1-benzoxazin-4-one] | > 90 | –
34 | CN1CCN(c2c(F)cc3c(=O)c(C(=O)O)cn(CCF)c3c2F)CC1 [Fleroxacin] | > 50 | –
35 | CC1(N)CCC(C(C)(C)N)CC1 (stereo not drawn) [1,8-Diamino-p-menthane] | > 90 | –
36 | COC(c1ccccc1)(c1ccccc1)[C@H](Oc1nc(C)cc(C)n1)C(=O)O [Ambrisentan] | > 50 | –
37 | C=CCc1cc(OC)c(O)c(C(=O)NCCO)c1 [Alibendol] | > 50 | –
38 | CSc1ccc(/C=C2/C(C)=C(CC(=O)O)c3cc(F)ccc32)cc1 [Sulindac sulfide] | > 50 | –
39 | Cc1c(Nc2ncccc2C(=O)O)cccc1C(F)(F)F [Flunixin meglumine] | 3.99 | –
40 | CO[Si](OC)(OC)OC [Tetramethyl orthosilicate] | 81.5 | –
41 | O=[N+]([O-])c1ccc(Oc2ccc([N+](=O)[O-])cc2)cc1 [1,1'-Oxybis(4-nitrobenzene)] | > 90 | –
42 | COc1ccccc1N1CCNCC1 [1-(2-Methoxyphenyl)piperazine hydrochloride] | – | CC50 at 24 h (AC50 (uM) modified / 1000, Tox21_110001=Tox21_111273, viability, 1 nM T3 present, 24 h): > 50 µM
43 | CCCOc1ccccc1-c1nc2nn[nH]c2c(=O)[nH]1 [Zaprinast] | > 50 | –
44 | Nc1ccc(N)c2ccccc12 [1,4-Naphthalenediamine] | > 90 | –
45 | CN1C(=O)CC[C@H]1c1cccnc1 [Cotinine] | > 90 | –
46 | CCCCCC(N)=O [Hexanamide] | > 90 | –
47 | CC(C)O [Isopropanol] | > 100 | –
48 | CCCCC(=O)O[C@]1(C(=O)CO)[C@@H](C)C[C@H]2[C@@H]3CCC4=CC(=O)C=C[C@]4(C)[C@@]3(F)[C@@H](O)C[C@@]21C [Betamethasone valerate] | 77.9 | –
49 | CCCCCCC [Heptane] | > 100 | –
50 | Cc1ccc(C#N)cc1 [4-Methylbenzonitrile] | > 90 | –
51 | CCC(=O)OC(=O)CC [Propanoic anhydride] | > 90 | –
52 | Clc1cc2c(cc1Cl)Oc1cc(Cl)c(Cl)cc1O2 [2,3,7,8-Tetrachlorodibenzo-p-dioxin] | – | CC50 at 24 h (AC50 (uM) modified / 1000, Tox21_110001=Tox21_202792, viability, 1 nM T3 present, 24 h): > 0.3 µM
53 | c1ccc(-c2ccccc2)cc1 [Biphenyl] | > 90 | –
54 | C=C(C)C(=O)OCCCCCCCC(C)C [Isodecyl methacrylate] | > 90 | –

Row | SMILES | CC50 at 24 h (AC50 (uM) modified / 1000) [µM] | further results
55 | CCOC(=O)c1ccc(N(C)C)cc1 [Parbenate] | > 90 | –
56 | CCc1cc(OC)c(C[C@H](C)N)cc1OC [(+)-2,5-Dimethoxy-4-ethylamphetamine hydrochloride] | 35.7 | –
57 | CCN(CC)c1ccccc1 [N,N-Diethylaniline] | > 90 | –
58 | C#CC(C)N(C)C(=O)Nc1ccc(Cl)cc1 (stereo not drawn) [Buturon] | > 90 | –
59 | CC(C)=CCC[C@](C)(O)[C@@H]1CC=C(C)CC1 [Levomenol] | > 90 | –
60 | Cn1c(N)nc2c3cccnc3ccc21 [2-Amino-3-methyl-3H-imidazo[4,5-f]quinoline] | – | CC50 at 24 h (AC50 (uM) modified / 1000, Tox21_110001=Tox21_200693, viability, 1 nM T3 present, 24 h): 36.1 µM
61 | CCC1(c2ccccc2)C(=O)NC(=O)N(C)C1=O (stereo not drawn) [Mephobarbital] | > 50 | –
62 | CC(C)(C#N)Nc1nc(Cl)nc(NC2CC2)n1 [Procyazine] | > 90 | –
63 | CCN(CC)c1ccc(N=Nc2ccc(S(=O)(=O)N(C)C)cc2)c(S(=O)(=O)NCC[n+]2ccccc2)c1 [1-[2-({[5-Diethylamino)-2-{[4-(dimethylsulfamoyl)phenyl]diazenyl}phenyl]sulfonyl}amino)ethyl]pyridinium chloride] | > 50 | –
64 | C1CC(COCC2CO2)CCC1COCC1CO1 (stereo not drawn) [2,2'-[Cyclohexane-1,4-diylbis(methanediyloxymethanediyl)]dioxirane] | 59.2 | –
65 | OC1CCCCC1 [Cyclohexanol] | > 100 | –
66 | CC(C)(C)C(O)/C(=C\c1ccc(Cl)cc1Cl)n1cncn1 (stereo not drawn) [Diniconazole] | 73.4 | –
67 | Nc1ncnc2nc[nH]c12 [Adenine] | > 90 | –
68 | CC(C)OC(=O)c1ccccc1 [Propan-2-yl benzoate] | > 100 | –
69 | O=S(=O)(O)c1cccc2ccccc12 [Sodium 1-naphthalenesulfonate] | > 90 | –
70 | CCCCNc1ccccc1 [N-Butylaniline] | > 90 | –
71 | Nc1cc(Cl)c([N+](=O)[O-])cc1O [2-Amino-4-chloro-5-nitrophenol] | 36.9 | –
72 | CC(O)(P(=O)(O)O)P(=O)(O)O [Etidronic acid] | > 90 | –
73 | CC[C@H]1OC(=O)[C@H](C)[C@@H](O[C@H]2C[C@@](C)(OC)[C@@H](O)[C@H](C)O2)[C@H](C)[C@@H](O[C@@H]2O[C@H](C)C[C@H](N(C)C)[C@H]2O)[C@](C)(OC)C[C@@H](C)C(=O)[C@H](C)[C@@H](O)[C@]1(C)O [Clarithromycin] | > 90 | –
74 | Nc1nc(N)nc(N)n1 [Melamine] | > 90 | –
75 | CCC(C)c1ccc(O)cc1 (stereo not drawn) [4-(Butan-2-yl)phenol] | 61.9 | –
76 | CC(=O)OC(C(=O)c1ccccc1)c1ccccc1 (stereo not drawn) [Benzoin acetate] | > 90 | –
77 | CC/C(=N\OC/C=C/Cl)C1=C(O)CC(C2CCOCC2)CC1=O (stereo not drawn) [Tepraloxydim] | > 90 | –
78 | CCc1nnc(NS(=O)(=O)c2ccc(N)cc2)s1 [Sulfaethidole] | > 50 | –
79 | CN(C)c1ccncc1 [N,N-dimethylpyridin-4-amine] | > 90 | –
80 | CC(C)(C)Cl [t-Butylchloride] | > 100 | –
